The values that follow come from patent publication US6066656A, “2,5-diamino-3,4-disubstituted-1,6-diphenylhexane isosteres comprising benzamide, sulfonamide and anthranilamide subunits and methods of using same” (The United States of America as represented by the …, priority 1998, dated 2000).

The structures appear in SMILES notation. pEC50, pKi: −log10 of the molar value. Where “and” joins values, the source holds several entries; their conditions need not be identical. Equal entries are not always repeated. Where two headings read alike, the source gives them in different places.

One series has as its system viral activity. The settings on record: cited from earlier work.
Series [1] addresses T1, HIV-1 protease (wild-type, WT) (Human immunodeficiency virus type 1 group M subtype B, UniProt P04585).
T1 construct: purified HIV-1 protease (wild-type, WT)
The series is described as follows: Inhibition of purified wild-type HIV-1 protease (fluorogenic substrate cleavage), Ki and % inhibition. The class given is biochemical. The procedure: (§1) The inhibition constants (Ki) for the compounds of the above examples were determined using purified HIV-1 protease (wild-type, WT) (Tables I, II, IV and V) and R8Q and V82I mutant HIV-1 proteases (Table III). Ki is an inhibition constant of a given compound as derived by enzyme kinetics. A low Ki represents a high affinity of the compound for the enzyme, i.e., tight binding or low dissociation. Inhibition of the cleavage was assayed using a fluorogenic substrate available from Molecular Probes, Inc., Eugene, Oreg., and described in Kageyama et al., Antimicrob. Agents. Chemother., 37, 272 (1993), and a fluorogenic substrate available from Bachem California, Torrance, Calif., and described in Kageyama et al. (1993), supra. The inhibitory potencies of these compounds are set forth in Tables I-V. Percent inhibition is the percentage inhibition of an enzyme's activity by a given compound at a given concentration.

Series [2] is described as follows: Fluorescence of compounds. The class given is physicochemical. The text has this: The determination of which compounds of the present invention fluoresce can be done in accordance with methods well-known to those of ordinary skill in the art. Such fluorescence can be used to assay for antiviral activity of newly discovered compounds. For example, a fluorescent compound of the present invention can be used as a standard in an antiviral activity assay. The fluorescence of the compound can be measured in the absence and presence of a viral enzyme, such as a retroviral enzyme, in particular a retroviral protease, e.g., an HIV protease, in vitro. A test compound can then be added to the test system comprising the fluorescent compound and the enzyme. The decreased fluorescence of the fluorescent compound of the present invention in the absence and presence of the test compound can be measured and quantitated as a measure of the antiviral activity of the test compound.

Series [3] has as its target T2, R8Q mutant HIV-1 protease (Human immunodeficiency virus type 1 group M subtype B, UniProt P04585, R496Q).
T2 construct: R8Q and V82I mutant HIV-1 proteases
The series is described as follows: Inhibition of R8Q mutant HIV-1 protease (fluorogenic substrate cleavage). The series is classed as biochemical. The settings on record: Table III. How it is done: as §1

The target in series [4] is T3, V82I mutant HIV-1 protease (Human immunodeficiency virus type 1 group M subtype B, UniProt P04585, V570I).
T3 construct: R8Q and V82I mutant HIV-1 proteases
The series is described as follows: Inhibition of V82I mutant HIV-1 protease (fluorogenic substrate cleavage). The settings on record: Table III. The class given is biochemical. How it is done:
as §1

A further series concerns HIV-1. The series is described as follows: Anti-retroviral activity in CEM cells chronically infected with HIV-1 (soluble formazan assay). The settings on record: Human immunodeficiency virus 1, CCRF-CEM, 50% inhibition of viral activity. The class given is cell-based.
The subject of another series is CEM cells. The series is described as follows: Toxicity of DD-5. The class given is cell-based. The settings on record: even at doses as high as 10^-4 M.
The next series concerns p24 synthesis. The series is described as follows: Suppression of p24 synthesis. The class given is cell-based, HIV-1. To be noted: Human immunodeficiency virus 1; read-out: concentrations suppressing p24 synthesis.
Where [5] appears, read: comparison compounds in clinical trials.

With `CC(C)c1nc(CN(C)C(=O)N[C@H](C(=O)N[C@@H](Cc2ccccc2)C[C@H](O)[C@H](Cc2ccccc2)NC(=O)OCc2cncs2)C(C)C)cs1` [ABT538], in the series with viral activity (setting [5]), the pEC50 is 7.44.

In the case of `O=C(Nc1ccccc1C(=O)N[C@@H](Cc1ccccc1)[C@H](O)[C@H](O)[C@H](Cc1ccccc1)NC(=O)c1ccccc1NC(=O)OCc1ccccc1)OCc1ccccc1` [Compound 27], the pKi was 8.62 in series [1] (Table IV, read-out: Ki) and 8.62 in series [1] (read-out: Ki). In addition, the “relative potency vs compound 26” value in series [1] (more potent than compound 26) is 20 times. The fluorescence result in series [2] is “good fluorescence”.

Take `CC(C)(C)NC(=O)[C@@H]1C[C@@H]2CCCC[C@@H]2CN1C[C@@H](O)[C@H](Cc1ccccc1)NC(=O)[C@H](CC(N)=O)NC(=O)c1ccc2ccccc2n1` [Ro31-8959]: the negative logarithm of the EC50 (pEC50) in the series with viral activity (setting [5]) was 8.00.

In the case of `CSC[C@H](NC(=O)COc1cccc2cnccc12)C(=O)N[C@@H](Cc1ccccc1)[C@H](O)C(=O)N1CSC[C@H]1C(=O)NC(C)(C)C` [KNI272], the pEC50 in the series with viral activity (setting [5]) is 8.38.

For the molecule `CC(C)[C@H](NC(=O)N(C)Cc1ccccn1)C(=O)N[C@@H](Cc1ccccc1)[C@H](O)[C@H](O)[C@H](Cc1ccccc1)NC(=O)[C@@H](NC(=O)N(C)Cc1ccccn1)C(C)C` [Compound A77003], the pEC50 in the series with viral activity (comparison compound in clinical trials, no unit printed (Ho et al.)) is 6.70.

On to `Nc1cccc(C(=O)N[C@@H](Cc2ccccc2)[C@H](O)[C@H](O)[C@H](Cc2ccccc2)NC(=O)c2cccc(N)c2)c1` [Compound 17], for which the “inhibition of HIV PR (in words)” value in series [1] is “potent inhibitors of HIV PR”. For the same molecule, the pKi is 8.30 in series [1] (Table II, read-out: Ki); 8.30 in series [1] (Table III, wild-type HIV protease, read-out: Ki WT); 8.30 in series [1] (read-out: Ki); 7.70 in series [3]; 6.96 in series [4].

For `O=C(Nc1ccccc1C(=O)N[C@@H](Cc1ccccc1)[C@H](O)[C@H](O)[C@H](Cc1ccccc1)NC(=O)c1ccccc1NC(=O)OCc1ccccn1)OCc1ccccn1` [Compound 34], the pKi in series [1] (Table IV, read-out: Ki) is 10.22; in series [1] (read-out: Ki), 10.21 and 10.19. The molecule further had a negative logarithm of the EC50 (pEC50) with HIV-1 of 8.49. Besides, the fluorescence result in series [2] is recorded as “good fluorescence”.

As to `O=C(Nc1ccccc1C(=O)N[C@@H](Cc1ccccc1)C[C@H](O)[C@H](Cc1ccccc1)NC(=O)c1ccccc1NC(=O)OCc1ccccn1)OCc1ccccn1` [Compound 36], the pEC50 in the series on HIV-1 was 8.62. Further, in the series on CEM cells, the toxicity result is recorded as “no toxicity”. Moreover, the minimal effective concentration in the series on p24 synthesis was ≥ 0.01 µM.

In general, pEC50 refers to the EC50 on a negative log10 scale, so that one unit is a factor of ten. One may read the pKi as the negative decadic logarithm of the Ki, by convention in mol/L.
